row,SMILES,melting point [°C]
1,CCc1nc2c(N)nc3cc(OCCN4CCOCC4)ccc3c2n1CC1CCOCC1,230 to 232
2,CSc1ccc2c(c1)C(=O)c1cc3ccccc3cc1C2=O,195 to 196
3,CCOC(=O)c1cc(=O)c2ccc(OS(=O)(=O)c3ccc(C)cc3)c([N+](=O)[O-])c2o1,125
4,CC(CNC(=O)c1c2ccccc2nc2c1[nH]c1ccccc12)N(C)C (stereo not drawn),188 to 189
5,COC(=O)c1nc(Cc2ccccc2)n2c1CN=C(c1ccccc1Cl)c1cc(Cl)ccc1-2,155 to 158
6,Cc1sc(-c2ccccc2F)nc1O,159 to 160
7,CN1CCN(c2n[nH]c3ccc(Cl)cc23)CC1,172 to 174
8,COc1cc2nc(N3CCc4ccc(N)cc4C3)nc(N)c2cc1OC,265 to 266
9,COC1(c2cccc(OCc3ccc(-n4ccnc4-c4ccccc4)cc3)c2)CCOCC1,117 to 118
10,Cc1cccc(-c2nc(NC(=O)Nc3ccccc3)sc2-c2ccnc(C)n2)c1,141 to 142
11,CCOC(=O)NC(C)=N,111 to 114
12,CC(=O)Oc1coc(-c2cccc([N+](=O)[O-])c2)cc1=O,170 to 171
13,O=C(N1CCOCC1)N1CCN(CCNc2ncc3ncnc(Nc4ccc(F)c(Cl)c4)c3n2)CC1,163 to 168
14,COc1cc(Nc2c(C#N)cnc3cc(Sc4ccccc4)c(OC)cc23)c(Cl)cc1Cl,220 to 222
15,Cn1cc(C(=O)O)c(=O)c2c3ccc(F)c(N4CCN(c5cccc(C(F)(F)F)c5)CC4)c3ncc21,261
16,O=Cc1ccc2c(c1)ncn2-c1cccc(-c2cccnc2)c1,200 to 202
17,CC(C)CCN1C(=O)C(NC(=O)Oc2cccc(Br)c2)C(=O)N(c2ccccc2)c2ccc(Cl)cc21 (stereo not drawn),144 to 145
18,Cc1ccc(F)cc1-c1noc(CCC#Cc2ccccn2)n1,90 to 91
19,O=C(O)CCC(=NOCc1ccc(OCc2cn3ccccc3n2)cc1)c1ccccc1,180 to 182
20,CON=CC1CCCN(OC(=O)c2ccccc2)C1 (stereo not drawn),38 to 40
21,CCCCCCCCCCCCCCCCCCNC(=O)c1ccccc1,85 to 87

row,SMILES,melting point [°C]
1,COc1cc(Nc2cccc(-c3ccccc3)c2)ccc1-c1cnco1,171 to 173
2,Cc1nc2c(n1C1CC1)CCCC2=O,132
3,N#CCc1coc2ccc3c(c12)C=CCO3,99 to 101
4,COc1ccc(-n2nc(CCCO)c(Cl)c2-c2ccc(Cl)cc2)cc1,113 to 115
5,CCOc1cc([N+](=O)[O-])c2c(c1)C1(C)CCN(C)C1N2C (stereo not drawn),106 to 108
6,Cc1c(-c2ccc3oc(=O)n(C)c3c2)nc2c(OCc3ccccc3)cccn12,210
7,Nc1cccc(-c2ccc(CCN3CCN(C(=O)Cc4ccccc4)CC3)cc2)n1,135 to 137
8,CC1(C)Oc2c([N+](=O)[O-])ccc(Cl)c2C1=O,167 to 168
9,CN1CCC(OC(c2ccccc2)c2nc3ccccc3[nH]2)C1 (stereo not drawn),53
10,O=C1CC2(Cc3cc4ccccc4n3C2)C(=O)N1 (stereo not drawn),215 to 220
11,O=C(O)C=CC(=O)c1ccc(Oc2ccc(Cl)c(Cl)c2)cc1,155 to 156
12,O=C1Cc2cc(Sc3ccccc3)ncc2N1,186 to 189
13,CN(C)CCCSC1=C(C#N)C(c2ccccn2)(c2ccccn2)C(=O)N1,184 to 185
14,O=C/C=C/C=C(c1ccccc1)c1ccccc1,71 to 72
15,CCN(Cc1cc(Br)ccc1OCc1ccccc1)c1ccc(C(=O)NCc2cccnc2)cc1,119 to 121
16,CS(=O)(=O)c1ccc(-c2sc(C(F)(F)F)nc2-c2ccc(F)cc2)cc1,168 to 170
17,CCc1nc2c(NC(=O)C(C)C)nc3ccccc3c2n1CCCCNS(C)(=O)=O,122 to 124
18,O=C1CCC(n2cnc3cccc(Cl)c3c2=O)C(=O)N1 (stereo not drawn),308 to 310
19,O=C1CCN(c2cc3c(cc2-c2ccc(F)cc2)NC(=O)CC(c2cccc(-n4ccnc4)c2)=N3)CC1,204
20,Cc1oc(-c2ccccc2)nc1CCCc1ccc(CCCC2OC(=O)NC2=O)cc1 (stereo not drawn),119 to 120

# Now from value to molecule:
row,melting point [°C],SMILES
1,158,CCN(c1ccc(C)cc1)c1nc(=O)c2cccnc2s1
2,115 to 116,COc1c2c(cc3ccc(=O)oc13)CC(C)O2 (stereo not drawn)
3,150 to 152,COc1cc(CCC(=O)O)ccc1OCc1sc(-c2ccc(C(F)(F)F)cc2)nc1C
4,78,CC(C)(C)OC1C2C=CC1C1N=NC21 (stereo not drawn)
5,100 to 102,CN(C)CCC=C1c2ccccc2COc2ccc(CCO)cc21
6,191 to 199,COc1cc2sc(C(=O)Cl)c(Cl)c2cc1OC
7,192 to 193,CCN(C(C)=O)c1cccc(-c2ccc3nnc(N)n3n2)c1
8,139 to 141,COc1cc(I)c(C=O)cc1OC
9,122,CC(C)(C)OC(=O)N[C@@H](Cc1cc(F)cc(F)c1)[C@H](O)CO
10,80 to 82,CCN(C(=O)N1CCN(c2cc(C)cc(C)c2)CC1)c1cc(C)c(C)cc1OC
11,254 to 256,NC(=O)c1ccc(N2CCN(Cc3cn4cc(Cl)ccc4n3)CC2)c(Cl)c1
12,186 to 187,COc1c(C)c(N2CCN(c3ccc(C(F)(F)F)cc3)CC2)c(C)c2c1OC(C)(C)C2
13,138,CN(C)CC(O)COc1ccc(C=CC(=O)N2CCc3c([nH]c4ccccc34)C2c2ccc3c(c2)CCO3)cc1 (stereo not drawn)
14,195,CSCCC(NC(=O)c1ccc(COc2cccnc2)cc1Oc1ccccc1)C(=O)O (stereo not drawn)
15,111 to 115,CCOC(=O)C1=Cc2cc([N+](=O)[O-])ccc2OC1C(F)(F)F (stereo not drawn)
16,179 to 180,CC(C)(C)N(NC(=O)c1ccccn1)C(=O)c1ccccc1Br
17,242 to 247,O=C(O)c1cn(-c2ccc(F)cc2F)c2c(F)c(N3Cc4ccc(Cl)cc4C3)c(F)cc2c1=O
18,84 to 85,COC(=O)[C@@H](O)[C@H](CC(C)C)NC(=O)OC(C)(C)C
19,263,COc1ccccc1-c1nc(N)c(C(N)=O)nc1-c1ccc(=O)n(C(C)C)c1

row,melting point [°C],SMILES
1,90 to 95,CC(C)(C)c1cc(CN2CC(N(O)C(N)=O)C2)cc(C(C)(C)C)c1O
2,230,COc1ccc2cc(O)c(C(=O)Nc3ccccc3)cc2c1
3,170 to 171,CCc1cccc2c3c([nH]c12)[C@@]1(CC(=O)O)CC[C@H]1CC3 (relative stereo)
4,215 to 216,Cc1cc2cc(OCC(=O)O)c(Cl)c(Cl)c2s1
5,208 to 209,CC(C)(C)OC(=O)N1CCC(O)(c2ccc(Oc3ccc(NC(=O)c4ccc(Cl)c(Cl)c4)cc3)cc2)CC1
6,170 to 171,COc1ccc(CC(SC)C(=O)O)cc1C(=O)NCc1ccc(C(F)(F)F)cc1 (stereo not drawn)
7,96 to 97,C=C(C)OC(=O)N1C(=O)C(C)N(C(=O)OC(=C)C)c2ccncc21 (racemic)
8,139 to 142,COCC(Oc1ccc(-n2nnc3cc(C(F)(F)F)ccc32)cc1)C(=O)O (stereo not drawn)
9,146 to 149,Cc1cccc(C)c1NNC(=O)c1cccc2c1CC(N(C(=O)C(F)(F)F)C1CC1)CO2 (stereo not drawn)
10,156 to 158,CC(C)(CNS(C)(=O)=O)Nc1nc(Cl)ncc1Cl
11,178 to 179,Cc1ccc(S(=O)(=O)N(Cc2ccc(C#N)cc2F)C2CCCC2)cc1
12,118 to 119,CSCCO[C@@H]1c2ccn3c(C)c(C)nc3c2N[C@H](c2ccccc2)[C@H]1O
13,167 to 168,CS(=O)(=O)N(c1nc(CN2CCN(C(c3ccccc3)c3ccccc3)CC2)cs1)S(C)(=O)=O
14,268 to 270,O=c1[nH]c2ccc(C(F)(F)F)cc2c(-c2cc(Cl)ccc2O)c1NS(=O)(=O)C(F)(F)F
15,130 to 131,COC(=O)c1ccc(C(O)=CC(=O)c2cc([Si](C)(C)C)ccc2O)cc1
16,156 to 159,CCOC(=O)c1ccc(NC(=O)C=C(c2ccc(OC)cc2)c2ccc(OC)cc2)cc1
17,57 to 59,CCOC(=O)N1CC(C)N(C(C)C(O)(Cn2cncn2)c2ccc(F)cc2F)CC1C (stereo not drawn)
18,97 to 100,CCNC(C)CN1CCc2c(c(=O)oc3cc(OC)ccc23)C1 (stereo not drawn)
19,68 to 70,CCOC(=O)Cc1ccc2c(c1)sc1cc(Cl)ccc12

row,melting point [°C],SMILES
1,134 to 136,N#Cc1cccnc1N1CCN(CC(=O)Nc2ccccc2[N+](=O)[O-])CC1
2,107 to 110,CC(=O)c1nc2ccc(Cl)cc2cc1OCc1ccccc1
3,81 to 83,CCOC(=O)c1c(N)c(Br)cc2c1OCO2
4,113,CO[C@@H]1C=C(S(=O)(=O)c2ccccc2)[C@@H](C(C)C)CC1
5,300 to 302,CCOC(=O)c1cc2c3n(ccc-2n1)C([N+](=O)[O-])C(C)=N3 (stereo not drawn)
6,194 to 196,CC1(c2ccccc2)Cc2cc(O)c(Cl)c(Cl)c2C1=O (stereo not drawn)
7,165 to 166,O=C(NCc1ccccc1)Nc1cc(N2CC(c3ccccc3)CC2=O)ccn1 (stereo not drawn)
8,110 to 115,CCOC(=O)c1ccc(NC(=O)c2ccccc2C)cc1
9,136,CC(C)(C)c1c(OCc2ccccc2)ccc2oc(C=O)cc12
10,132 to 133,Cc1c(NC(=O)CC(C)(C)C)cc2c(c1C)OCC2(C)c1ccc(C(C)C)cc1 (stereo not drawn)
11,138 to 140,CC(C)(C)NC(=O)Nc1nc2nc(S(C)(=O)=O)ncc2cc1-c1c(Cl)cccc1Cl
12,135 to 137,COC(=O)C1=C(C)N=C(C)C(C(=O)OC)C(c2ccccc2)C1 (stereo not drawn)
13,118,CN(C)C(=O)c1ccc(C2CCC(=O)CC2)cc1
14,61 to 64,Cc1ccc(S(=O)(=O)OCC2Cc3cc(C)c4c(c3O2)CCC4)cc1 (stereo not drawn)
15,280,CN1CCN(c2ncc3c(=O)c(C(=O)O)cn(C)c3n2)CC1
16,73.5 to 76,Cc1c(C(F)(F)F)noc1OCC(=O)O
17,98 to 100,Cc1ccccc1C(=O)N1CCc2nnc(NN)cc2C1
18,180 to 182,CN(C(=O)c1ccc(N)cc1)[C@@H]1CN(C2CCCCC2)C[C@H]1O (relative stereo)
19,208 to 210,COC(=O)C1=CC2=CCC3C(CCC4(C)C(C(=O)c5ccc(O)cc5)CCC34)C2(C)CC1 (stereo not drawn)

# From a melting point compilation (Tetko et al.; mined from patent text by program, amines drawn as free bases though some values may be those of a salt)
